# From US11220504B2, “Pyrrolo[3,2-d] pyrimidine derivatives for the treatment of viral infections and other diseases” (JANSSEN SCIENCES IRELAND UNLIMITED COMPANY, priority 2012, dated 2022)
# Tests used:
# [1] = tested on: interferon-stimulated responsive elements (ISRE); experiment: Activation of ISRE promoter elements by conditioned media from PBMC (HEK-ISREluc); assay type: cell-based, human; conditions: conditioned media from PBMC transferred to HEK-ISREluc cells, 24 hours, lowest effective concentration; for minimal effective concentration: Homo sapiens, read-out: PBMC LEC
# Outline: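 Human PBMCs (≥2 donors, RPMI + 10% human AB serum, 2×10^5 cells/well) incubated overnight with compound; supernatant transferred to HEK293 cells stably carrying pISRE-Luc for 24 h, then luciferase read. LEC = compound concentration on PBMCs giving luciferase signal at least two-fold above assay SD; recombinant IFN-α-2a standard.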
# [2] = molecular target: T1, human TLR8 (Homo sapiens, UniProt Q9NR97); experiment: TLR8 cellular reporter assay (HEK293, NFκB-luc); assay type: cell-based; conditions: HEK293 cells transfected with CMV-TLR8 and NFκB-luc, 6 hours incubation; lowest effective concentration
# T1 construct: expressed in transfected cells; host or cells: HEK293 cells, transient transfection with TLR8 plasmid and NFκB-luc plasmid
# T1 sequence (Q9NR97 27-1041): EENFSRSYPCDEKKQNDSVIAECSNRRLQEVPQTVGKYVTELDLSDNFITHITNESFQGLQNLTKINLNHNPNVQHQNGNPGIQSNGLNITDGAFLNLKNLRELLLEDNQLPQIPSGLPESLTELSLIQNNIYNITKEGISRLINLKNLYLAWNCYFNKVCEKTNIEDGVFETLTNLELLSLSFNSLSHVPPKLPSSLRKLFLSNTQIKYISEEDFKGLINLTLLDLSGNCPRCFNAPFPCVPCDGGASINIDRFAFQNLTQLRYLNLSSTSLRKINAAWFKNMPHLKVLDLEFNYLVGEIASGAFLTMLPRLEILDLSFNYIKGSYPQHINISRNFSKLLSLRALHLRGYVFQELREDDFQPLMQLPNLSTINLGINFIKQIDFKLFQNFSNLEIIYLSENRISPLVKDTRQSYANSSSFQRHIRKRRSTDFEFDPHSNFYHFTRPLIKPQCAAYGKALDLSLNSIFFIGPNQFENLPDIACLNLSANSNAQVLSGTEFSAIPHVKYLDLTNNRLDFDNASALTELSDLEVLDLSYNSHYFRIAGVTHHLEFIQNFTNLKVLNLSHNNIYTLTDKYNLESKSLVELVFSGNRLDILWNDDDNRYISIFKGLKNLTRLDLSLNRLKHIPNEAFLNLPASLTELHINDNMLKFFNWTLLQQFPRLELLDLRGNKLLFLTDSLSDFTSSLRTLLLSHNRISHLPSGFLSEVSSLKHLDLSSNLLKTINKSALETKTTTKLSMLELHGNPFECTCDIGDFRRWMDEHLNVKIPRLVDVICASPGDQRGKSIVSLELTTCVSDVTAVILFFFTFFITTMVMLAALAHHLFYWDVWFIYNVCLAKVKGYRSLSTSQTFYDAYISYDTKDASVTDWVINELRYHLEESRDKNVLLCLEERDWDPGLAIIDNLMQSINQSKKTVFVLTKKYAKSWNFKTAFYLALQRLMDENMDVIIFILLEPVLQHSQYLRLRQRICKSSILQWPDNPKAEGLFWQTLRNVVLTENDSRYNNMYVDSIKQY
# Outline: (§1)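 HEK293 cells transiently transfected with receptor expression vector plus NFκB-luciferase reporter, exposed to compound (added in 4% DMSO) for 6 hours at 37° C, 5% CO2. Luciferase activity measured by luminescence; dose-response curves from quadruplicate measurements.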
# [3] = molecular target: T2, human TLR7 (Homo sapiens, UniProt Q9NYK1); experiment: TLR7 cellular reporter assay (HEK293, NFκB-luc); assay type: cell-based; conditions: HEK293 cells transfected with CMV-TLR7 and NFκB-luc, 6 hours incubation; lowest effective concentration
# T2 construct: expressed in transfected cells; host or cells: HEK293 cells, transient transfection with CMV-TLR7 plasmid and NFκB-luc plasmid
# T2 sequence (Q9NYK1 27-1049): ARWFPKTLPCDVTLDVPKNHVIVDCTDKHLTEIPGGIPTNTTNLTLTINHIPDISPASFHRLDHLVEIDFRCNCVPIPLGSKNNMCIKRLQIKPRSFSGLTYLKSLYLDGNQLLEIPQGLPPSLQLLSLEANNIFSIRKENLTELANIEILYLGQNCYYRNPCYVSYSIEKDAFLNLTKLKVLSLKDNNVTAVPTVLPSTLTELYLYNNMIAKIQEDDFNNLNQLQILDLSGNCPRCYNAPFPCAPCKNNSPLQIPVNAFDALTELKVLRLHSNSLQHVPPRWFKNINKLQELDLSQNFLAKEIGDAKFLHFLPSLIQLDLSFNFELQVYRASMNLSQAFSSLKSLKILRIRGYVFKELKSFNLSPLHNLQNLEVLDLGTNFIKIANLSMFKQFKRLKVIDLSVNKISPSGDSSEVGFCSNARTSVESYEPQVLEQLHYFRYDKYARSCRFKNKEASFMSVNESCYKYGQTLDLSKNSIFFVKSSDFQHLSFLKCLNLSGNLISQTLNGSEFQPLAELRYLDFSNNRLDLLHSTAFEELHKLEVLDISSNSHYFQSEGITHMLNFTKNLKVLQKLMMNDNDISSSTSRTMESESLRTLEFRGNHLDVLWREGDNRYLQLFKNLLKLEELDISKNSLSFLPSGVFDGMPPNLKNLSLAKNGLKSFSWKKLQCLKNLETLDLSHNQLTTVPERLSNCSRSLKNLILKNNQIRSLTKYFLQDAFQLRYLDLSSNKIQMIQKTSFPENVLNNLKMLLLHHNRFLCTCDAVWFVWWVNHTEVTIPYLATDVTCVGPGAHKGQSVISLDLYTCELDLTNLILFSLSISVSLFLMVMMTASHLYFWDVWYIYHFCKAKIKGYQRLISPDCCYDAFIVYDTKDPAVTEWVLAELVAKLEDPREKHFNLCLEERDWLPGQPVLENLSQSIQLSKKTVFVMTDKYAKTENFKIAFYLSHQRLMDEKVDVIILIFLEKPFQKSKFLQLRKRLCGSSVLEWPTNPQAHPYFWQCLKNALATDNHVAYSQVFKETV
# Outline: as §1
Structure (SMILES),TLR8 LEC [2] [µM],TLR7 LEC [3] [µM],minimal effective concentration [1] [µM],PBMC LEC [1] [µM]
CCC[C@@H](CCO)Nc1nc(N)nc2ccn(Cc3ccncc3)c12 [Compound 39],>25,0.17,0.009,–
CCCCNc1nc(N)nc2ccn(CC3CCC3)c12 [Compound 62],0.9934,0.06,0.06,–
CCC[C@@H](CCO)Nc1nc(N)nc2ccn(Cc3ccccc3)c12 [Compound 21],7.4,0.009,0.0007,–
CCCC[C@@H](CCO)Nc1nc(N)nc2ccn(Cc3ccc(OC)cc3)c12 [Compound 77],2.62,0.008,0.002,–
CCCCNc1nc(N)nc2c(F)cn(Cc3ccccc3)c12 [Compound 93],>25,0.26,0.12,–
CCCCNc1nc(N)nc2c(C)cn(Cc3ccccc3)c12 [Compound 58],>25,0.24,–,0.90
CCCCNc1nc(N)nc2ccn(Cc3ccccc3-c3ccccc3)c12 [Compound 7],>25,0.61,0.8,–
CCCCNc1nc(N)nc2ccn(Cc3nccc4ccccc34)c12 [Compound 65],>25,0.1687,0.08,–
CCCC(C)Nc1nc(N)nc2ccn(Cc3ccc(OC)cc3)c12 (stereo not drawn) [Compound 75],>25,0.04,0.04,–
CCCCNc1nc(N)nc2ccn(CC3CCCO3)c12 (stereo not drawn) [Compound 71],4.68,0.32,0.24,–
CCCC[C@@H](CCO)Nc1nc(N)nc2ccn(Cc3ccccc3OC)c12 [Compound 78],0.5577,0.0004,< 0.0004,–
CCCCNc1nc(N)nc2ccn(Cc3ccccc3OC)c12 [Compound 69],0.71,0.004,0.002,–
CCCCNc1nc(N)nc2c(C)cn(Cc3ccccc3)c12 [Compound 54],>25,1.68,0.9,–
CCCC(C)Nc1nc(N)nc2ccn(Cc3ccccc3)c12 (stereo not drawn) [Compound 33],>25,0.03,0.04,–
CCC[C@@H](CCO)Nc1nc(N)nc2ccn(Cc3ccccc3F)c12 [Compound 81],22.02,0.01,0.002,–
CCC[C@@H](CO)Nc1nc(N)nc2ccn(Cc3ccccc3)c12 [Compound 17],12.5,0.07,0.01,–

# Further lines, with some results ahead:
TLR8 LEC [2] [µM],TLR7 LEC [3] [µM],Structure (SMILES),minimal effective concentration [1] [µM],PBMC LEC [1] [µM]
0.75,<0.01,CCCCNc1nc(N)nc2ccn(Cc3cccc4c3OCCO4)c12 [Compound 163],0.001,–
15.93,0.04,COCCNc1nc(N)nc2ccn(Cc3cccc4c3OCCO4)c12 [Compound 164],0.025,–
>25,<0.01,COc1cccnc1Cn1ccc2nc(N)nc(NCc3ncc(C)o3)c21 [Compound 213],0.001,–
>25,0.09,COc1ccnc(Cn2ccc3nc(N)nc(NCc4cc(C)on4)c32)c1 [Compound 167],0.008,–
>25,0.32,COCCNc1nc(N)nc2ccn(Cc3ccccc3OC(F)F)c12 [Compound 162],0.128,–
>25,0.07,Cc1cc(CNc2nc(N)nc3ccn(Cc4csc(C)n4)c23)no1 [Compound 192],0.03,–
>25,1.20,CCCCNc1nc(N)nc2ccn(Cc3cc(OC4CCOC4)c(OC)cn3)c12 (stereo not drawn) [Compound 134],0.104,–
>25,1.40,Cc1cc(CNc2nc(N)nc3ccn(Cc4cccc(C(N)=O)n4)c23)no1 [Compound 172],0.017,–
>25,0.126,CC(C)c1cc(CNc2nc(N)nc3ccn(Cc4cscn4)c23)no1 [Compound 108],0.07,–
>25,13.8,CC(C)OCCNc1nc(N)nc2ccn(Cc3ccccn3)c12 [Compound 137],2.03,–
>25,0.02,Cc1ccc(Cn2ccc3nc(N)nc(NCc4cc(C)on4)c32)nc1 [Compound 175],0.009,–
>25,0.03,Cc1cc(CNc2nc(N)nc3ccn(Cc4cn5ccccc5n4)c23)no1 [Compound 157],0.003,–
>25,11.3,Cn1cc(CNc2nc(N)nc3ccn(Cc4ccccn4)c23)nn1 [Compound 193],0.447,–
>25,8.67,Cc1nc(CNc2nc(N)nc3ccn(Cc4ccccn4)c23)c(C)o1 [Compound 177],3.93,–
>25,3.220,COCCNc1nc(N)nc2ccn(Cc3cc(OC)ccn3)c12 [Compound 120],2.16,–
>25,0.10,Cc1cc(CNc2nc(N)nc3ccn(Cc4cccc(C(F)(F)F)n4)c23)no1 [Compound 143],0.016,–
>25,0.05,Cc1cc(CNc2nc(N)nc3ccn(Cc4cccc(Cl)n4)c23)no1 [Compound 159],0.019,–
>25,0.026,COc1cnccc1Cn1ccc2nc(N)nc(NCc3cc(C)on3)c21 [Compound 123],0.002,–
